Inconclusive results and toxic doses are left out. The calls were made as follows: active = survival T/C of 150% or more; inactive = T/C below 125% in these data.
Test system: CD2F1 mice, L1210 leukemia ip, survival T/C
Experiment: NCI In Vivo Anticancer Drug Screen. Data for tumor model L1210 Leukemia (intraperitoneal) in CD2F1 (CDF1) mice
Conditions: higher = longer survival
How it was run: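 Transplantable tumor in mice; compound-treated vs vehicle-treated groups. Read-out = treated/control ratio of the measured endpoint.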

[1] = endpoint: mean survival time, dose: 50.0 mg/kg/injection, schedule: Q01DX009 (ip), vehicle: saline with Tween-80
[2] = endpoint: mean survival time, dose: 100.0 mg/kg/injection, schedule: Q01DX001 (ip), vehicle: saline
[3] = endpoint: mean survival time, dose: 100.0 mg/kg/injection, schedule: Q01DX009 (ip), vehicle: saline with Tween-80
[4] = endpoint: mean survival time, dose: 200.0 mg/kg/injection, schedule: Q01DX001 (ip), vehicle: saline
[5] = endpoint: mean survival time, dose: 200.0 mg/kg/injection, schedule: Q01DX009 (ip), vehicle: saline with Tween-80
[6] = endpoint: mean survival time, dose: 400.0 mg/kg/injection, schedule: Q01DX001 (ip), vehicle: saline
[7] = endpoint: mean survival time, dose: 75.0 mg/kg/injection, schedule: Q01DX001 (ip), vehicle: saline
[8] = endpoint: mean survival time, dose: 150.0 mg/kg/injection, schedule: Q01DX001 (ip), vehicle: saline
[9] = endpoint: mean survival time, dose: 100.0 mg/kg/injection, schedule: Q04DX002 (ip), vehicle: saline with Tween-80
[10] = endpoint: mean survival time, dose: 200.0 mg/kg/injection, schedule: Q04DX002 (ip), vehicle: saline with Tween-80
[11] = endpoint: mean survival time, dose: 400.0 mg/kg/injection, schedule: Q04DX002 (ip), vehicle: saline with Tween-80
[12] = endpoint: mean survival time, dose: 100.0 mg/kg/injection, schedule: Q01DX001 (ip), vehicle: saline with Tween-80
[13] = endpoint: mean survival time, dose: 200.0 mg/kg/injection, schedule: Q01DX001 (ip), vehicle: saline with Tween-80
[14] = endpoint: mean survival time, dose: 400.0 mg/kg/injection, schedule: Q01DX009 (ip), vehicle: saline with Tween-80

Measured: T/C

O=C(CCc1ccc(C(=O)C[n+]2ccccc2)cc1)C[n+]1ccccc1
inactive: endpoint: mean survival time, dose: 0.5 mg/kg/injection, schedule: Q04DX003 (ip), vehicle: saline 104 % of control | endpoint: mean survival time, dose: 1.0 mg/kg/injection, schedule: Q04DX003 (ip), vehicle: saline 101 % of control | endpoint: mean survival time, dose: 2.0 mg/kg/injection, schedule: Q04DX003 (ip), vehicle: saline 95 % of control

O=c1ccc2ccc(O)cc2o1
inactive: [1] 101 % of control | [2] 103 % of control | [3] 93 % of control | [4] 108 % of control | [5] 97 % of control | [6] 103 % of control

CC(=O)Nc1nc(C)cs1
inactive: [7] 98 % of control | [8] 97 % of control | endpoint: mean survival time, dose: 300.0 mg/kg/injection, schedule: Q01DX001 (ip), vehicle: saline 98 % of control

CC(C)NC(=O)Nc1ccccc1Cl
inactive: [9] 93 % of control | [10] 97 % of control | [11] 104 % of control

N=C1N(c2ccc(C(=O)NC(CCC(=O)O)C(=O)O)cc2)CC2CNc3nc(N)[nH]c(=O)c3N12 (centres undefined)
inactive: [2] 100 % of control | [4] 93 % of control | [6] 104 % of control

COc1ccc(N=NNc2ccc(OC)cc2)cc1
inactive: endpoint: mean survival time, dose: 6.25 mg/kg/injection, schedule: Q01DX009 (ip), vehicle: saline with Tween-80 100 % of control | endpoint: mean survival time, dose: 12.5 mg/kg/injection, schedule: Q01DX009 (ip), vehicle: saline with Tween-80 96 % of control | endpoint: mean survival time, dose: 25.0 mg/kg/injection, schedule: Q01DX009 (ip), vehicle: saline with Tween-80 102 % of control

C=CCS(=O)(=O)Cc1cccc(C)c1
inactive: endpoint: mean survival time, dose: 100.0 mg/kg/injection, schedule: Q01DX001 (ip), vehicle: Klucel (hydroxypropylcellulose) (HPC) 93 % of control | endpoint: mean survival time, dose: 200.0 mg/kg/injection, schedule: Q01DX001 (ip), vehicle: Klucel (hydroxypropylcellulose) (HPC) 107 % of control | endpoint: mean survival time, dose: 400.0 mg/kg/injection, schedule: Q01DX001 (ip), vehicle: Klucel (hydroxypropylcellulose) (HPC) 101 % of control

Cc1cc(C)c(Sc2c3ccccc3cc3ccccc23)c(C)c1
inactive: [2] 91 % of control | endpoint: mean survival time, dose: 100.0 mg/kg/injection, schedule: Q04DX003 (ip), vehicle: saline 93 % of control | [4] 101 % of control | endpoint: mean survival time, dose: 200.0 mg/kg/injection, schedule: Q04DX003 (ip), vehicle: saline 87 % of control | [6] 100 % of control | endpoint: mean survival time, dose: 400.0 mg/kg/injection, schedule: Q04DX003 (ip), vehicle: saline 95 % of control

O=[N+]([O-])c1ccc(C[N+]23CCN(CC2)CC3)cc1
inactive: [12] 100 % of control | [13] 106 % of control

CC1(C)CC(=O)C2=C(C1)OC1(O)CC(C)(C)CC(=O)C1C2c1ccccc1Cl (centres undefined)
inactive: [3] 93 % of control | endpoint: mean survival time, dose: 100.0 mg/kg/injection, schedule: Q04DX003 (ip), vehicle: saline with Tween-80 92 % of control | [5] 93 % of control | endpoint: mean survival time, dose: 200.0 mg/kg/injection, schedule: Q04DX003 (ip), vehicle: saline with Tween-80 94 % of control | [14] 95 % of control | endpoint: mean survival time, dose: 400.0 mg/kg/injection, schedule: Q04DX003 (ip), vehicle: saline with Tween-80 96 % of control

C=C(OP(=O)(OC)OC)Sc1ccccc1C
inactive: endpoint: median survival time, dose: 0.38 mg/kg/injection, schedule: Q01DX009 (ip), vehicle: Klucel (hydroxypropylcellulose) (HPC) 101 % of control | endpoint: median survival time, dose: 0.75 mg/kg/injection, schedule: Q01DX009 (ip), vehicle: Klucel (hydroxypropylcellulose) (HPC) 101 % of control

O=C(O)C(F)(F)C(F)(F)C(F)(F)C(F)=C(F)F
inactive: [7] 103 % of control | [8] 101 % of control

C(=NCc1ccccc1)c1ccc2c(c1)OCO2
inactive: [9] 100 % of control | [10] 100 % of control | [11] 100 % of control

Clc1ccc(CCc2ccc(Cl)cc2)cc1
inactive: [1] 102 % of control | [3] 98 % of control | [5] 102 % of control

O=C(OC1CC2CCC1C2Cl)c1ccc2ccccc2c1 (centres undefined)
inactive: [12] 93 % of control | [3] 91 % of control | [13] 89 % of control | [5] 93 % of control | endpoint: mean survival time, dose: 400.0 mg/kg/injection, schedule: Q01DX001 (ip), vehicle: saline with Tween-80 95 % of control | [14] 95 % of control
